# Counter-ions that a name gives are not always drawn. Like-named read-outs stand apart in the source and are kept apart here.
# Tests used:
# c-Cbl = c-Cbl (Homo sapiens (Human), UniProt P22681); assay: C-Cbl LCK Ub TR-FRET assay (c-cbl Lck HTRF); type: biochemical; details: for (fold-selectivity): C-cbl Lck HTRF IC50 relative to Cbl-b Lck HTRF IC50
# Outline: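 Detection reagents added, brief spin, 20 min RT. IC50 fit normalized to no-LCK (low) and DMSO (high) controls.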
# Cbl-b = Cbl-b (Homo sapiens (Human), UniProt Q13191); assay: Cbl-b LCK Ub TR-FRET assay (Cbl-b Lck HTRF); type: biochemical
# Outline: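 TR-FRET (340 nm excitation, 615/665 nm emission) read after adding HA-ubiquitin–UBE2D2 thioester, anti-HA-D2 and streptavidin-Eu. Beforehand, compounds incubated 60 min with biotinylated Cbl-b, then 90 min with His-LCK and ATP (1 mM in 2× mix); IC50 from 10 concentrations, DMSO high and no-LCK low controls.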
# c-Cbl, sequence (P22681 47-435): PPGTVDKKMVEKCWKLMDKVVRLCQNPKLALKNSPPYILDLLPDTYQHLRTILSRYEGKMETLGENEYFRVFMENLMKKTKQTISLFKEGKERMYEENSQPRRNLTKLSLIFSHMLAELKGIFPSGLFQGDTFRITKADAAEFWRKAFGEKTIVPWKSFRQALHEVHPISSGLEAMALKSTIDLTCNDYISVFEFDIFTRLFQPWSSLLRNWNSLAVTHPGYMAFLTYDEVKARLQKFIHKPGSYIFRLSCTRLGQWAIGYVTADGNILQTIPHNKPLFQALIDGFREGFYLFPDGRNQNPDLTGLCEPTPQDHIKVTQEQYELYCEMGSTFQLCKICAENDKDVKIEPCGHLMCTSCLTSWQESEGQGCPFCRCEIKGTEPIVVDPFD
# Cbl-b, sequence (Q13191 40-426): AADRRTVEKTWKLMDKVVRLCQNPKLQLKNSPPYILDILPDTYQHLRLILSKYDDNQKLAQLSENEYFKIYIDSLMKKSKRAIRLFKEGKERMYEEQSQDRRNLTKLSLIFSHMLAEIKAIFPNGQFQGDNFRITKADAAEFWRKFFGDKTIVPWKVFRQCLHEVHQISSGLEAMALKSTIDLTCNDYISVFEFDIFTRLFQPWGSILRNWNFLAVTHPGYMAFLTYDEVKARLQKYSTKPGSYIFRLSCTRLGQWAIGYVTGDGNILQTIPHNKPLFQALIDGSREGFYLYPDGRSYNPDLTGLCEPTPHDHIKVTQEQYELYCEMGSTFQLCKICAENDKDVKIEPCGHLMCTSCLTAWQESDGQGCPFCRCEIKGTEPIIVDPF
IC50 (c-Cbl),(fold-selectivity) (c-Cbl),IC50 (Cbl-b),SMILES,IC50 (c-Cbl; formate),IC50 (Cbl-b; formate)
9.1 nM,(0.68x),13 nM,"CC(C)Nc1cc(N2Cc3c(cc(CN4CCN(C)C[C@@H]4C(C)C)cc3C(F)(F)F)C2=O)cc(C2(Cc3nncn3C)CCC2)c1 [Compound 408, (S)-6-((2-isopropyl-4-methylpiperazin-1-yl)methyl)-2-(3-(isopropylamino)-5-(1-((4-methyl-4H-1,2,4-triazol-3-yl)methyl)cyclobutyl)phenyl)-4-(trifluoromethyl)isoindolin-1-one]",–,–
5.9 nM,(0.48x),12 nM,"CC(C)Nc1cc(C2(Cc3nncn3C)CCC2)cc(N2Cc3c(cc(CN4CCN(C)C[C@@H]4C(C)C)cc3C(F)(F)F)C2=O)n1 [Compound 409, (S)-6-((2-isopropyl-4-methylpiperazin-1-yl)methyl)-2-(6-(isopropylamino)-4-(1-((4-methyl-4H-1,2,4-triazol-3-yl)methyl)cyclobutyl)pyridin-2-yl)-4-(trifluoromethyl)isoindolin-1-one]",–,–
77 nM,(0.62x),12 nM,"CC(C)[C@H]1CN(C)CCN1Cc1cc2c(c(C(F)(F)F)c1)CN(c1cccc(C3(Cc4nncn4C)CCC3)c1)C2=O [Compound 410, (S)-6-((2-isopropyl-4-methylpiperazin-1-yl)methyl)-2-(3-(1-((4-methyl-4H-1,2,4-triazol-3-yl)methyl)cyclobutyl)phenyl)-4-(trifluoromethyl)isoindolin-1-one]",–,–
43 nM,(0.88x),48 nM,"CN1CCN(Cc2cc3c(c(C(F)(F)F)c2)CN(c2cccc(C4(Cc5nncn5C)CC(F)(F)C4)c2)C3=O)CC1 [Compound 411, 2-(3-(3,3-difluoro-1-((4-methyl-4H-1,2,4-triazol-3-yl)methyl)cyclobutyl)phenyl)-6-((4-methylpiperazin-1-yl)methyl)-4-(trifluoromethyl)isoindolin-1-one]",–,–
–,–,–,"CN1CC2CC(C1)N2Cc1cc2c(c(C(F)(F)F)c1)CN(c1cccc(C3(Cc4nncn4C)CC(F)(F)C3)c1)C2=O [Compound 413, 2-(3-(3,3-difluoro-1-((4-methyl-4H-1,2,4-triazol-3-yl)methyl)cyclobutyl)phenyl)-6-((3-methyl-3,6-diazabicyclo[3.1.1]heptan-6-yl)methyl)-4-(trifluoromethyl)isoindolin-1-one formate]",50 nM,56 nM
68 nM,(0.77x),88 nM,"CN1C[C@@H]2C[C@H]1CN2Cc1cc2c(c(C(F)(F)F)c1)CN(c1cccc(C3(Cc4nncn4C)CC(F)(F)C3)c1)C2=O [Compound 414, 2-(3-(3,3-difluoro-1-((4-methyl-4H-1,2,4-triazol-3-yl)methyl)cyclobutyl)phenyl)-6-(((1S,4S)-5-methyl-2,5-diazabicyclo[2.2.1]heptan-2-yl)methyl)-4-(trifluoromethyl)isoindolin-1-one]",–,–
14 nM,(0.91x),16 nM,"CC(C)NCc1cc2c(c(C(F)(F)F)c1)CN(c1cccc(C3(Cc4nncn4C)CC(F)(F)C3)c1)C2=O [Compound 415, 2-(3-(3,3-difluoro-1-((4-methyl-4H-1,2,4-triazol-3-yl)methyl)cyclobutyl)phenyl)-6-((isopropylamino)methyl)-4-(trifluoromethyl)isoindolin-1-one]",–,–
110 nM,(1.2x),92 nM,"CC(C)N(C)Cc1cc2c(c(C(F)(F)F)c1)CN(c1cccc(C3(Cc4nncn4C)CC(F)(F)C3)c1)C2=O [Compound 416, 2-(3-(3,3-difluoro-1-((4-methyl-4H-1,2,4-triazol-3-yl)methyl)cyclobutyl)phenyl)-6-((isopropyl(methyl)amino)methyl)-4-(trifluoromethyl)isoindolin-1-one]",–,–
52 nM,(0.93x),57 nM,"CC(C)NCc1cc2c(c(C(F)(F)F)c1)CN(c1cccc(C3([C@@H](F)c4nncn4C)CC(F)(F)C3)c1)C2=O [Compound 417, (R)-2-(3-(3,3-difluoro-1-(fluoro(4-methyl-4H-1,2,4-triazol-3-yl)methyl)cyclobutyl)phenyl)-6-((isopropylamino)methyl)-4-(trifluoromethyl)isoindolin-1-one]",–,–
37 nM,(1.2x),32 nM,"CC(C)NCc1cc2c(c(C(F)(F)F)c1)CN(c1cccc(C3([C@H](F)c4nncn4C)CC(F)(F)C3)c1)C2=O [Compound 418, (S)-2-(3-(3,3-difluoro-1-(fluoro(4-methyl-4H-1,2,4-triazol-3-yl)methyl)cyclobutyl)phenyl)-6-((isopropylamino)methyl)-4-(trifluoromethyl)isoindolin-1-one]",–,–
420 nM,(1.2x),360 nM,"CC(C)N(C)Cc1cc2c(c(C(F)(F)F)c1)CN(c1cccc(C3([C@@H](F)c4nncn4C)CC(F)(F)C3)c1)C2=O [Compound 419, (R)-2-(3-(3,3-difluoro-1-(fluoro(4-methyl-4H-1,2,4-triazol-3-yl)methyl)cyclobutyl)phenyl)-6-((isopropyl(methyl)amino)methyl)-4-(trifluoromethyl)isoindolin-1-one]",–,–
220 nM,(0.91x),240 nM,"CC(C)N(C)Cc1cc2c(c(C(F)(F)F)c1)CN(c1cccc(C3([C@H](F)c4nncn4C)CC(F)(F)C3)c1)C2=O [Compound 420, (S)-2-(3-(3,3-difluoro-1-(fluoro(4-methyl-4H-1,2,4-triazol-3-yl)methyl)cyclobutyl)phenyl)-6-((isopropyl(methyl)amino)methyl)-4-(trifluoromethyl)isoindolin-1-one]",–,–
11 nM,(0.72x),15 nM,"CC[C@H]1CN(Cc2cc3c(c(C(F)(F)F)c2)CN(c2cccc(C4(Cc5nncn5C)CC(F)(F)C4)c2)C3=O)CCN1C [Compound 421, (S)-2-(3-(3,3-difluoro-1-((4-methyl-4H-1,2,4-triazol-3-yl)methyl)cyclobutyl)phenyl)-6-((3-ethyl-4-methylpiperazin-1-yl)methyl)-4-(trifluoromethyl)isoindolin-1-one]",–,–
17 nM,(1.1x),16 nM,"Cn1cnnc1CC1(c2cccc(N3Cc4c(cc(OCc5c[nH]cn5)cc4C(F)(F)F)C3=O)c2)CC(F)(F)C1 [Compound 422, 6-((1H-imidazol-4-yl)methoxy)-2-(3-(3,3-difluoro-1-((4-methyl-4H-1,2,4-triazol-3-yl)methyl)cyclobutyl)phenyl)-4-(trifluoromethyl)isoindolin-1-one]",–,–
23 nM,(1.0x),23 nM,"Cn1cnnc1[C@@H](F)C1(c2cccc(NC(=O)c3cc(CN4CC(C)(CO)C4)cc(C4CC4)n3)c2)CC(F)(F)C1 [Compound 423, (S)-6-cyclopropyl-N-(3-(3,3-difluoro-1-(fluoro(4-methyl-4H-1,2,4-triazol-3-yl)methyl)cyclobutyl)phenyl)-4-((3-(hydroxymethyl)-3-methylazetidin-1-yl)methyl)picolinamide]",–,–
31 nM,(0.73x),42 nM,"C[C@@H]1CN(Cc2cc3c(c(C(F)(F)F)c2)CN(c2cccc(C4(Cc5nncn5C)CC(F)(F)C4)c2)C3=O)CCN1 [Compound 424, (R)-2-(3-(3,3-difluoro-1-((4-methyl-4H-1,2,4-triazol-3-yl)methyl)cyclobutyl)phenyl)-6-((3-methylpiperazin-1-yl)methyl)-4-(trifluoromethyl)isoindolin-1-one]",–,–
22 nM,(0.68x),32 nM,"C[C@H]1CN(Cc2cc3c(c(C(F)(F)F)c2)CN(c2cccc(C4(Cc5nncn5C)CC(F)(F)C4)c2)C3=O)CCN1 [Compound 425, (S)-2-(3-(3,3-difluoro-1-((4-methyl-4H-1,2,4-triazol-3-yl)methyl)cyclobutyl)phenyl)-6-((3-methylpiperazin-1-yl)methyl)-4-(trifluoromethyl)isoindolin-1-one]",–,–
26 nM,(0.73x),35 nM,"CC[C@@H]1CN(Cc2cc3c(c(C(F)(F)F)c2)CN(c2cccc(C4(Cc5nncn5C)CC(F)(F)C4)c2)C3=O)CCN1 [Compound 426, (R)-2-(3-(3,3-difluoro-1-((4-methyl-4H-1,2,4-triazol-3-yl)methyl)cyclobutyl)phenyl)-6-((3-ethylpiperazin-1-yl)methyl)-4-(trifluoromethyl)isoindolin-1-one]",–,–
16 nM,(0.76x),21 nM,"CC[C@H]1CN(Cc2cc3c(c(C(F)(F)F)c2)CN(c2cccc(C4(Cc5nncn5C)CC(F)(F)C4)c2)C3=O)CCN1 [Compound 427, (S)-2-(3-(3,3-difluoro-1-((4-methyl-4H-1,2,4-triazol-3-yl)methyl)cyclobutyl)phenyl)-6-((3-ethylpiperazin-1-yl)methyl)-4-(trifluoromethyl)isoindolin-1-one]",–,–
10 nM,(0.74x),14 nM,"CC(C)[C@@H]1CN(Cc2cc3c(c(C(F)(F)F)c2)CN(c2cccc(C4(Cc5nncn5C)CC(F)(F)C4)c2)C3=O)CCN1 [Compound 428, (R)-2-(3-(3,3-difluoro-1-((4-methyl-4H-1,2,4-triazol-3-yl)methyl)cyclobutyl)phenyl)-6-((3-isopropylpiperazin-1-yl)methyl)-4-(trifluoromethyl)isoindolin-1-one]",–,–

SMILES,IC50 (c-Cbl),(fold-selectivity) (c-Cbl),IC50 (Cbl-b),IC50 (c-Cbl; formate),IC50 (Cbl-b; formate)
"CN1CC2CC(C1)N2Cc1cc2c(c(C(F)(F)F)c1)CN(c1cccc(C3(Cc4nncn4C)CC(F)(F)C3)c1)C2=O [Compound 412, 2-(3-(3,3-difluoro-1-((4-methyl-4H-1,2,4-triazol-3-yl)methyl)cyclobutyl)phenyl)-6-((3-methyl-3,6-diazabicyclo[3.1.1]heptan-6-yl)methyl)-4-(trifluoromethyl)isoindolin-1-one]",51 nM,(1.1x),50 nM,–,–
